The values that follow come from ChEMBL document CHEMBL1142509, “Building skeletally diverse architectures on the Indoline Scaffold: the discovery of a chemical probe of focal adhesion kinase signaling networks” (Bioorg Med Chem, 2008).

The target in assay [1] is Focal adhesion kinase 1 (Homo sapiens) (UniProt Q05397). In words: Inhibition of human FAK at 30 uM.
Assay [2] in a line: Antiproliferative activity against human MDA-MB-231M cells after 96 hrs by MTT assay. It is filed as functional, cell-based. For orientation: Tetrazolium assays rely on reduction of a dye to a coloured formazan, in cell work by metabolically active cells.
Assay [3] addresses Focal adhesion kinase 1 (Homo sapiens) (UniProt Q05397). In words: Inhibition of FAK in human MDA-MB-231M cells assessed as phosphorylated tyrosine 397 levels at 25 uM after 1 hr by Western blot. In kind it is cell-based. (In general: In western blotting, separated proteins are transferred to a membrane and probed.)
Another assay is filed under the species Homo sapiens. Kind of assay: Inhibition of human MDA-MB-231M cell motility assessed as remaining wound area at 25 uM after 24 hrs by wound healing assay. It is filed as functional.
The test system of a further assay is MDA-MB-231. Kind of assay: Antiinvasive activity against human MDA-MB-231 cells at 25 uM. It is filed as functional, cell-based.

Active and inactive are the calls of the source. No cut-off for these calls is given here.

Broadly, the inhibition is the relative decrease from the control value, in per cent. The term IC50 denotes the concentration needed to halve the response being measured. Low readings indicate greater potency, high ones weaker potency.

Focal adhesion kinase 1 (Homo sapiens), sequence (Q05397 2-1052 limits assumed): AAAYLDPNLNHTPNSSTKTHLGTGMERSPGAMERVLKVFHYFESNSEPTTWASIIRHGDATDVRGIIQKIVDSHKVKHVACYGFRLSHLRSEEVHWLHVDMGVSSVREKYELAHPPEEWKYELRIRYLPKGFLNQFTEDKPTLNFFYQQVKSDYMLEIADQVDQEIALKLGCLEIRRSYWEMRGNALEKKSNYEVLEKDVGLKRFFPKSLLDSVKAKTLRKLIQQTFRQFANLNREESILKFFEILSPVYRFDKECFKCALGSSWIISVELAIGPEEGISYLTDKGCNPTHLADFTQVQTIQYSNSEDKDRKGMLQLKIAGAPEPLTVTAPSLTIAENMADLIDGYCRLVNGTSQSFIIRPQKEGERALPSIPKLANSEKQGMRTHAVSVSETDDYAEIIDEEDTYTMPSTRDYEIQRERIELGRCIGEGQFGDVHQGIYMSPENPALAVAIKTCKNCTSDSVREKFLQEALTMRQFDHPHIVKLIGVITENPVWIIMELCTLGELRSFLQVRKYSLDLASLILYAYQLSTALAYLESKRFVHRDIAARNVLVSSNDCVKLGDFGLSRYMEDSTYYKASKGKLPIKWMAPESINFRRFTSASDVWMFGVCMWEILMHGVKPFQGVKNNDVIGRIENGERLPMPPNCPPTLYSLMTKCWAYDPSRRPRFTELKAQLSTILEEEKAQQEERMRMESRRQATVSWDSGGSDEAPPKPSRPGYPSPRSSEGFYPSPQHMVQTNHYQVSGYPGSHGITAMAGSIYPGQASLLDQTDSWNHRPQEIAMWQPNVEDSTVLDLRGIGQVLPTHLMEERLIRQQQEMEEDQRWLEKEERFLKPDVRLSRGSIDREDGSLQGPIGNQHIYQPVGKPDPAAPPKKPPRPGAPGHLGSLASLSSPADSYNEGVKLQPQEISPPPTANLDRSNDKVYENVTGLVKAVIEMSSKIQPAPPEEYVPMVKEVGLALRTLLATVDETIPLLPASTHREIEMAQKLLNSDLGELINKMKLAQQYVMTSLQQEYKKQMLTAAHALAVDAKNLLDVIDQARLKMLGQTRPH

The molecule `C=CCOC(=O)N1c2ccc(OCCCOC3CCCCO3)cc2C[C@H]1[C@@H](CC=C)OC(C)=O` (mixture of isomers) registered an inhibition in assay [1] of 30%. Also, 38.7 µM corresponded to half-maximal inhibition in assay [2] (IC50). Besides, the outcome (in assay [3]; in the assay filed under Homo sapiens; in the assay with MDA-MB-231) was Active.
